Assay [1] deals with Human rhinovirus sp. Put plainly: Antiviral activity against rhinoviral 16 serotype in a plaque inhibition assay using monolayers of M-HeLa cells. It is filed as functional, organism-based.
In assay [2] the test system is Human rhinovirus sp. Put plainly: Antiviral activity against rhinoviral-1B serotype in a plaque inhibition assay using monolayers of M-HeLa cells. It is filed as functional, organism-based.
Assay [3] deals with Human rhinovirus sp. The assay can be described thus: Percent inhibitory activity at 8 uM against rhinoviral 31 serotype in a plaque inhibition assay using monolayers of M-HeLa cells. It is filed as functional.
Assay [4] concerns Human rhinovirus sp. Put plainly: Percent inhibitory activity at 8 uM against rhinoviral 19s erotype in a plaque inhibition assay using monolayers of M-HeLa cells. The class given is functional.
Assay [5] concerns Human rhinovirus sp. Put plainly: Percent inhibitory activity at 8 uM against rhinoviral 5 serotype in a plaque inhibition assay using monolayers of M-HeLa cells. The class given is functional.
Assay [6] has as its system Human rhinovirus sp. The assay can be described thus: Antiviral activity against rhinoviral 14 serotype in a plaque inhibition assay using monolayers of M-HeLa cells. It is filed as functional, organism-based.
Assay [7] has as its system Human rhinovirus sp. The assay can be described thus: Antiviral activity against rhinoviral 12 serotype in a plaque inhibition assay using monolayers of M-HeLa cells. The class given is functional, organism-based.
The test system of assay [8] is Human rhinovirus sp. Put plainly: Percent inhibitory activity at 8 uM against rhinoviral 13 serotype in a plaque inhibition assay using monolayers of M-HeLa cells. The class given is functional.
Assay [9] has as its system Human rhinovirus sp. Put plainly: Antiviral activity against rhinoviral 29 serotype in a plaque inhibition assay using monolayers of M-HeLa cells. It is filed as functional, organism-based.
Assay [10] relates to Human rhinovirus sp. Put plainly: Antiviral activity against rhinoviral 2 serotype in a plaque inhibition assay using monolayers of M-HeLa cells. The class given is functional, organism-based.
The test system of assay [11] is Human rhinovirus sp. Put plainly: Percent inhibitory activity at 8 uM against rhinoviral 30 serotype in a plaque inhibition assay using monolayers of M-HeLa cells. It is filed as functional.
Assay [12] relates to Human rhinovirus sp. Put plainly: Antiviral activity against rhinoviral 9 serotype in a plaque inhibition assay using monolayers of M-HeLa cells. It is filed as functional, organism-based.
Assay [13] deals with Human rhinovirus sp. The assay can be described thus: Antiviral activity against rhinoviral-1A serotype in a plaque inhibition assay using monolayers of M-HeLa cells. It is filed as functional, organism-based.
The test system of assay [14] is Human rhinovirus sp. Put plainly: Antiviral activity against rhinoviral 21 serotype in a plaque inhibition assay using monolayers of M-HeLa cells. The class given is functional, organism-based.
Assay [15] has as its system Human rhinovirus sp. Put plainly: Antiviral activity against rhinoviral 15 serotype in a plaque inhibition assay using monolayers of M-HeLa cells. The class given is functional, organism-based.
In assay [16] the test system is Human rhinovirus sp. Put plainly: Antiviral activity against rhinoviral-18 serotype in a plaque inhibition assay using monolayers of M-HeLa cells. It is filed as functional, organism-based.
The nature of assay [17]: Percent inhibitory activity at 8 uM against rhinoviral 8 serotype in a plaque inhibition assay using monolayers of M-HeLa cells. The class given is functional, Homo sapiens.
In assay [18] the test system is Human rhinovirus sp. Put plainly: Percent inhibitory activity at 8 uM against rhinoviral 3 serotype in a plaque inhibition assay using monolayers of M-HeLa cells. The class given is functional.
The test system of assay [19] is Human rhinovirus sp. Put plainly: Percent inhibitory activity at 8 uM against rhinoviral 4 serotype in a plaque inhibition assay using monolayers of M-HeLa cells. The class given is functional.
Assay [20] has as its system Human rhinovirus sp. Put plainly: Antiviral activity against rhinoviral 8 serotype in a plaque inhibition assay using monolayers of M-HeLa cells. It is filed as functional, organism-based.
The test system of assay [21] is Human rhinovirus sp. The assay can be described thus: Antiviral activity against rhinoviral 31 serotype in a plaque inhibition assay using monolayers of M-HeLa cells. The class given is functional, organism-based.
Assay [22] deals with Human rhinovirus sp. Put plainly: Antiviral activity against rhinoviral 5 serotype in a plaque inhibition assay using monolayers of M-HeLa cells. It is filed as functional, organism-based.
The subject of assay [23] is Human rhinovirus sp. The assay can be described thus: Percent inhibitory activity at 8 uM against rhinoviral 15 serotype in a plaque inhibition assay using monolayers of M-HeLa cells. The class given is functional.
Assay [24] concerns Human rhinovirus sp. Put plainly: Antiviral activity against rhinoviral 4 serotype in a plaque inhibition assay using monolayers of M-HeLa cells. It is filed as functional, organism-based.
The subject of assay [25] is Human rhinovirus sp. The assay can be described thus: Percent inhibitory activity at 8 uM against rhinoviral 21 serotype in a plaque inhibition assay using monolayers of M-HeLa cells. The class given is functional.
Assay [26] has as its system Human rhinovirus sp. The assay can be described thus: Percent inhibitory activity at 8 uM against rhinoviral 29 serotype in a plaque inhibition assay using monolayers of M-HeLa cells. It is filed as functional.
Assay [27] relates to Human rhinovirus sp. Put plainly: Antiviral activity against rhinoviral 19 serotype in a plaque inhibition assay using monolayers of M-HeLa cells. It is filed as functional, organism-based.
Assay [28] has as its system Human rhinovirus sp. Put plainly: Antiviral activity against rhinoviral 18 serotype in a plaque inhibition assay using monolayers of M-HeLa cells. The class given is functional, organism-based.
The test system of assay [29] is Human rhinovirus sp. The assay can be described thus: Antiviral activity against rhinoviral 30 serotype in a plaque inhibition assay using monolayers of M-HeLa cells. It is filed as functional, organism-based.
Assay [30] concerns Human rhinovirus sp. The assay can be described thus: Antiviral activity against rhinoviral 3 serotype in a plaque inhibition assay using monolayers of M-HeLa cells. The class given is functional, organism-based.
Assay [31] in a line: Antiviral activity against rhinoviral 13 serotype in a plaque inhibition assay using monolayers of M-HeLa cells. Conditions: Homo sapiens. The class given is functional, cell-based.
In assay [32] the test system is Human rhinovirus sp. Put plainly: Percent inhibitory activity at 8 uM against rhinoviral 14 serotype in a plaque inhibition assay using monolayers of M-HeLa cells. The class given is functional.

For orientation: IC50 means the concentration at which inhibition is half-maximal. Read a low IC50 as greater potency in that assay. Usually Inhibition stands for how much of the control response was suppressed. Higher therefore signals a response far below the control. As for `CN(C)c1nc(C(F)(F)F)nc2c1ncn2Cc1cccc(F)c1`, the IC50 in the assay with Human rhinovirus sp. [1] stood at 0.8 µM; with Human rhinovirus sp. [2], 0.03 µM; in the assay on Human rhinovirus sp. [6], 7.1 µM; in the assay on Human rhinovirus sp. [7], 2.3 µM; in the assay with Human rhinovirus sp. [9], 2.7 µM; in the assay with Human rhinovirus sp. [10], 15 µM. In addition, the IC50 in the assay on Human rhinovirus sp. [12] was 0.3 µM; in the assay with Human rhinovirus sp. [13] it was 0.57 µM; with Human rhinovirus sp. [14] it was 10 µM; in the assay on Human rhinovirus sp. [15], 3.2 µM; in the assay on Human rhinovirus sp. [16] it was 8 µM. For the same compound, the Inhibition in the assay with Human rhinovirus sp. [3] came to 43%; in the assay with Human rhinovirus sp. [4], 28%; in the assay on Human rhinovirus sp. [5], 34%; in the assay on Human rhinovirus sp. [8], 30%; with Human rhinovirus sp. [11] it was 28%; in assay [17], 45%. Moreover, the Inhibition with Human rhinovirus sp. [18] is 35%; in the assay on Human rhinovirus sp. [19], 34%.
In the case of `Cc1ccc(Cn2cnc3c(N(C)C)nc(C(F)(F)F)nc32)c(C)c1`, the IC50 in the assay with Human rhinovirus sp. [1] was 1.2 µM; in the assay with Human rhinovirus sp. [2] it was 0.11 µM; in the assay on Human rhinovirus sp. [20], greater than 8 µM; in the assay with Human rhinovirus sp. [6], 11 µM; in the assay on Human rhinovirus sp. [7] it was 7.2 µM; in the assay with Human rhinovirus sp. [21], 13 µM. Further, the IC50 in the assay with Human rhinovirus sp. [22] is greater than 8 µM; in the assay on Human rhinovirus sp. [10], 2.8 µM; in the assay on Human rhinovirus sp. [12], 0.95 µM; in the assay with Human rhinovirus sp. [13], 0.83 µM; with Human rhinovirus sp. [24], 7.6 µM; with Human rhinovirus sp. [16] it was 6.1 µM. Moreover, the Inhibition was determined as 36% in the assay on Human rhinovirus sp. [4]; 13% with Human rhinovirus sp. [8]; 33% in the assay on Human rhinovirus sp. [11]; 30% with Human rhinovirus sp. [23]; 16% with Human rhinovirus sp. [25]; 40% in the assay on Human rhinovirus sp. [18]. The compound further gave an Inhibition with Human rhinovirus sp. [26] of 20%.
In the case of `CN(C)c1nc(C(F)(F)F)nc2c1ncn2Cc1ccc(Cl)cc1`, the IC50 with Human rhinovirus sp. [2] is 0.03 µM; in the assay with Human rhinovirus sp. [20] it was 5.7 µM; in the assay on Human rhinovirus sp. [27], 6.5 µM; in the assay with Human rhinovirus sp. [28], greater than 8 µM; with Human rhinovirus sp. [6], 4.3 µM; in the assay on Human rhinovirus sp. [7], 7.4 µM. The half-inhibitory concentration (IC50) in the assay on Human rhinovirus sp. [21] came to 5.3 µM; in the assay on Human rhinovirus sp. [22] it was 8 µM; in the assay with Human rhinovirus sp. [9], 2.5 µM; with Human rhinovirus sp. [10], 6.6 µM; in the assay with Human rhinovirus sp. [12] it was 0.9 µM; with Human rhinovirus sp. [13], 0.73 µM. The IC50 with Human rhinovirus sp. [29] is 6.5 µM; with Human rhinovirus sp. [24] it was 6.1 µM; with Human rhinovirus sp. [30], 6.9 µM; in assay [31], greater than 8 µM; in the assay on Human rhinovirus sp. [14] it was 7.4 µM; in the assay on Human rhinovirus sp. [15], 3.3 µM.
In the case of `CN(C)c1ccc(Cn2cnc3c(N(C)C)nc(C(F)(F)F)nc32)cc1`, the IC50 in the assay on Human rhinovirus sp. [1] amounted to 1.9 µM; with Human rhinovirus sp. [2], 0.29 µM; in the assay with Human rhinovirus sp. [28], 8.9 µM; with Human rhinovirus sp. [7], 4 µM; in the assay on Human rhinovirus sp. [9] it was 4.7 µM; in the assay on Human rhinovirus sp. [10], 11 µM. For the same compound, the results for the IC50 with Human rhinovirus sp. [12], in the assay with Human rhinovirus sp. [13] and with Human rhinovirus sp. [24] were 4.6 µM, 1.2 µM and 6.1 µM, respectively. Also, the Inhibition in the assay on Human rhinovirus sp. [3] turned out to be 41%; in the assay with Human rhinovirus sp. [4], 23%; in the assay with Human rhinovirus sp. [5] it was 39%; in the assay with Human rhinovirus sp. [8], 45%; in the assay on Human rhinovirus sp. [11] it was 35%; in the assay with Human rhinovirus sp. [23], 30%. Further, the Inhibition in the assay with Human rhinovirus sp. [25] was 27%; in [17], 37%; in the assay on Human rhinovirus sp. [32], 46%.
For `CSc1ccc(Cn2cnc3c(N(C)C)nc(C(F)(F)F)nc32)cc1`, the IC50 with Human rhinovirus sp. [1] is 0.81 µM; with Human rhinovirus sp. [2], 0.07 µM; in the assay with Human rhinovirus sp. [20] it was 7.2 µM; in the assay on Human rhinovirus sp. [27], 2.5 µM; with Human rhinovirus sp. [28] it was 10 µM; with Human rhinovirus sp. [6], 7.6 µM. Moreover, the IC50 with Human rhinovirus sp. [7] was 5.2 µM; with Human rhinovirus sp. [21] it was 8.6 µM; in the assay on Human rhinovirus sp. [22] it was greater than 8 µM; in the assay on Human rhinovirus sp. [9], 2.6 µM; in the assay with Human rhinovirus sp. [10] it was 4.5 µM; in the assay on Human rhinovirus sp. [12], 1 µM. Besides, the IC50 with Human rhinovirus sp. [13] was 0.57 µM; in the assay on Human rhinovirus sp. [29], 7.9 µM; in the assay with Human rhinovirus sp. [24], 3.8 µM; in the assay on Human rhinovirus sp. [15] it was 4.5 µM. Moreover, the Inhibition worked out at 35% with Human rhinovirus sp. [8], 35% in the assay with Human rhinovirus sp. [25] and 39% in the assay on Human rhinovirus sp. [18].

The values above are taken from ChEMBL document CHEMBL1124634, “Synthesis and antirhinovirus activity of 6-(dimethylamino)-2-(trifluoromethyl)-9-(substituted benzyl)-9H-purines” (J Med Chem, 1989).
